Measured values taken from patent publication US9809578B2, “Pyrazolyl urea, thiourea, guanidine and cyanoguanidine compounds as trkA kinase inhibitors” (Array BioPharma Inc., priority 2012, dated 2017).

Assays:
Type in all cases: biochemical
Conditions in all cases: 10 μM, ATP near Km
PAK5 = target: T1, PAK5 (Homo sapiens, UniProt Q9P286); experiment: KinaseProfiler PAK5
T1 construct: purchased Millipore, Inc. (KinaseProfiler service)
Source text: (§1) The compound was run in duplicate at a concentration of ATP near the Km for each individual kinase according to Millipore's specifications.

Pim-2 = target: T2, Pim-2 (Homo sapiens, UniProt Q9P1W9); experiment: KinaseProfiler Pim-2
T2 construct: purchased Millipore, Inc. (KinaseProfiler service)
Source text: as §1

ARK5 = target: T3, ARK5 (Homo sapiens, UniProt O60285); experiment: KinaseProfiler ARK5
T3 construct: purchased Millipore (KinaseProfiler service)
Source text: as §1

Met = target: T4, Met (Homo sapiens, UniProt P08581); experiment: KinaseProfiler Met
T4 construct: purchased Millipore, Inc. (KinaseProfiler service)
Source text: as §1

DAPK2 = target: T5, DAPK2 (Homo sapiens, UniProt Q9UIK4); experiment: KinaseProfiler DAPK2
T5 construct: purchased Millipore, Inc. (KinaseProfiler service)
Source text: as §1

PDGFRbeta = target: T6, PDGFRbeta (Homo sapiens, UniProt P09619); experiment: KinaseProfiler PDGFRbeta
T6 construct: purchased Millipore, Inc. (KinaseProfiler service)
Source text: as §1

CDK2/cyclinE = target: T7, CDK2/cyclinE (Homo sapiens, UniProt P24941); experiment: KinaseProfiler CDK2/cyclinE
T7 construct: purchased Millipore, Inc. (KinaseProfiler service)
Source text: as §1

PAK6 = target: T8, PAK6 (Homo sapiens, UniProt Q9NQU5); experiment: KinaseProfiler PAK6
T8 construct: purchased Millipore, Inc. (KinaseProfiler service)
Source text: as §1

MELK = target: T9, MELK (Homo sapiens, UniProt Q14680); experiment: KinaseProfiler MELK
T9 construct: purchased Millipore, Inc. (KinaseProfiler service)
Source text: as §1

VRK2 = target: T10, VRK2 (Homo sapiens, UniProt Q86Y07); experiment: KinaseProfiler VRK2
T10 construct: purchased Millipore, Inc. (KinaseProfiler service)
Source text: as §1

PKCeta = target: T11, PKCeta (Homo sapiens, UniProt P24723); experiment: KinaseProfiler PKCeta
T11 construct: purchased Millipore, Inc. (KinaseProfiler service)
T11 sequence (P24723 whole entry): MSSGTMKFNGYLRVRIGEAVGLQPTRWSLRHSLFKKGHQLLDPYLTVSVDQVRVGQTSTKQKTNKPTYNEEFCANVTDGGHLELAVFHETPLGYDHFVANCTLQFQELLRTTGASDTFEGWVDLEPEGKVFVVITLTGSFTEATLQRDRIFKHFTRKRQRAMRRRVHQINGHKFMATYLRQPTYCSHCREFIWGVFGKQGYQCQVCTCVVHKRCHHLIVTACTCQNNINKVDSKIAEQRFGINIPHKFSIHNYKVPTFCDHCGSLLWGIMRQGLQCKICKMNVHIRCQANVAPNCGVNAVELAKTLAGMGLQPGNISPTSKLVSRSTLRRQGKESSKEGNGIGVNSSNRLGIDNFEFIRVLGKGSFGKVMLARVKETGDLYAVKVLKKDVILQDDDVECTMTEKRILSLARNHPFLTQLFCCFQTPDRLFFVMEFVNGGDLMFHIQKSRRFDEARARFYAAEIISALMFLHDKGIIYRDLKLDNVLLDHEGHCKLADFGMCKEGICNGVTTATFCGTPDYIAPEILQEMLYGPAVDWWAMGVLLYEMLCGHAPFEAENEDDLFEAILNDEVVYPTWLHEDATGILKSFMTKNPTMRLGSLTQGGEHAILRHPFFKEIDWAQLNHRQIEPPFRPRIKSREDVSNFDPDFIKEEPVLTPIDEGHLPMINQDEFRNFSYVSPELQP
Source text: as §1

Flt1 = target: T12, Flt1 (Homo sapiens, UniProt P17948); experiment: KinaseProfiler Flt1
T12 construct: purchased Millipore, Inc. (KinaseProfiler service)
Source text: as §1

DCAMKL2 = target: T13, DCAMKL2 (Homo sapiens, UniProt Q8N568); experiment: KinaseProfiler DCAMKL2
T13 construct: purchased Millipore, Inc. (KinaseProfiler service)
Source text: as §1

CAMK1 = target: T14, CAMK1 (Homo sapiens, UniProt Q14012); experiment: KinaseProfiler CAMK1
T14 construct: purchased Millipore (KinaseProfiler service)
Source text: as §1

EphB2 = target: T15, EphB2 (Homo sapiens, UniProt P29323); experiment: KinaseProfiler EphB2
T15 construct: purchased Millipore, Inc. (KinaseProfiler service)
Source text: as §1

BrSK2 = target: T16, BrSK2 (Homo sapiens, UniProt Q8IWQ3); experiment: KinaseProfiler BrSK2
T16 construct: purchased Millipore (KinaseProfiler service)
Source text: as §1

TAK1 = target: T17, TAK1 (Homo sapiens, UniProt O43318); experiment: KinaseProfiler TAK1
T17 construct: purchased Millipore, Inc. (KinaseProfiler service)
Source text: as §1

ITK = target: T18, ITK (Homo sapiens, UniProt Q08881); experiment: KinaseProfiler ITK
T18 construct: purchased Millipore, Inc. (KinaseProfiler service)
T18 sequence (Q08881 whole entry): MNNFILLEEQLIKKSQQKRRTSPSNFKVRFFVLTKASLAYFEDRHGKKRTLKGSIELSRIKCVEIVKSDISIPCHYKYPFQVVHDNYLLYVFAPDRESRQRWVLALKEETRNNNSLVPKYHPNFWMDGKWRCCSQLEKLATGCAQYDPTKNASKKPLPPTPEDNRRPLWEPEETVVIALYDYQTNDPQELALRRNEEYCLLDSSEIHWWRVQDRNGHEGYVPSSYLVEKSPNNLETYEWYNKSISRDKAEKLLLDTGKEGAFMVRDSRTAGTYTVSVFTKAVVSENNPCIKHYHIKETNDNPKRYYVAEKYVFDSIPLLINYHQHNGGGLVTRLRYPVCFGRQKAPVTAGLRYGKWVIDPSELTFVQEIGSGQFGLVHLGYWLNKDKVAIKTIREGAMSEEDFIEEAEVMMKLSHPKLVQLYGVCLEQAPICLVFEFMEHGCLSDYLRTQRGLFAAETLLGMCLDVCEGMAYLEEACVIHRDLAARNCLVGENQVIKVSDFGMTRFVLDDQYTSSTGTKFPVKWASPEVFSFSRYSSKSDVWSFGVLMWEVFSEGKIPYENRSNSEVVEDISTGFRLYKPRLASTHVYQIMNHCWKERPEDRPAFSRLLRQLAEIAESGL
Source text: as §1

Syk = target: T19, Syk (Homo sapiens, UniProt P43405); experiment: KinaseProfiler Syk
T19 construct: purchased Millipore, Inc. (KinaseProfiler service)
Source text: as §1

CDK5/p25 = target: T20, CDK5/p25 (Homo sapiens, UniProt Q00535); experiment: KinaseProfiler CDK5/p25
T20 construct: purchased Millipore, Inc. (KinaseProfiler service)
Source text: as §1

MAP4K2 = target: T21, MAP4K2 (Homo sapiens, UniProt Q12851); experiment: KinaseProfiler MAP4K2
T21 construct: purchased Millipore, Inc. (KinaseProfiler service)
Source text: as §1

MYLK = target: T22, MYLK (Homo sapiens, UniProt Q15746); experiment: KinaseProfiler MYLK
T22 construct: purchased Millipore, Inc. (KinaseProfiler service)
Source text: as §1

ULK2 = target: T23, ULK2 (Homo sapiens, UniProt Q8IYT8); experiment: KinaseProfiler ULK2
T23 construct: purchased Millipore, Inc. (KinaseProfiler service)
Source text: as §1

WNK3 = target: T24, WNK3 (Homo sapiens, UniProt Q9BYP7); experiment: KinaseProfiler WNK3
T24 construct: purchased Millipore, Inc. (KinaseProfiler service)
Source text: as §1

Mer = target: T25, Mer (Homo sapiens, UniProt Q12866); experiment: KinaseProfiler Mer
T25 construct: purchased Millipore, Inc. (KinaseProfiler service)
T25 sequence (Q12866 21-999): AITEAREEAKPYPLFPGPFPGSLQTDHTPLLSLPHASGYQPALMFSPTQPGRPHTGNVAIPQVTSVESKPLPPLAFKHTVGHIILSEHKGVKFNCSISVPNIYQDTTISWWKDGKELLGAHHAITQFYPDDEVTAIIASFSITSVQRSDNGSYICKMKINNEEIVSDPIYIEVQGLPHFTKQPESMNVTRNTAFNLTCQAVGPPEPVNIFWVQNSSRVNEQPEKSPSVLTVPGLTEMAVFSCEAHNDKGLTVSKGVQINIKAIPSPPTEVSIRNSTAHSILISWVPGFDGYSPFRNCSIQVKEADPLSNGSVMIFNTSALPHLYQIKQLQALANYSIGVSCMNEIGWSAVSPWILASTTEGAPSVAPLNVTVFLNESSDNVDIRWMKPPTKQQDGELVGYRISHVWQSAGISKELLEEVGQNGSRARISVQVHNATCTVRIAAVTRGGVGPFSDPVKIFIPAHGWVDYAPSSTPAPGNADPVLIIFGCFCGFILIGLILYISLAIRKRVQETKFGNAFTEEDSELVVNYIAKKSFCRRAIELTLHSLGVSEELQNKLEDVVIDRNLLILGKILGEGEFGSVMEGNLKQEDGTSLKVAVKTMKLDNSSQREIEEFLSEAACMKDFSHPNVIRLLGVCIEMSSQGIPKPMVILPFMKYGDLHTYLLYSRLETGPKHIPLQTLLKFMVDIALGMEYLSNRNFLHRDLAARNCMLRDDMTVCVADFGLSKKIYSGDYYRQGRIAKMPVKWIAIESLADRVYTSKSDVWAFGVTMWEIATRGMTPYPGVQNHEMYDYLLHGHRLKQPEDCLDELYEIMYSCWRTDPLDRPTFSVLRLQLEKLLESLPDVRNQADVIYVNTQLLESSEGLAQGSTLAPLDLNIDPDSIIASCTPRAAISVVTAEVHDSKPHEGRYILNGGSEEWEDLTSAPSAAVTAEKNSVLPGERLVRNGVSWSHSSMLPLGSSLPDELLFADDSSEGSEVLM
Source text: as §1

LIMK1 = target: T26, LIMK1 (Homo sapiens, UniProt P53667); experiment: KinaseProfiler LIMK1
T26 construct: purchased Millipore, Inc. (KinaseProfiler service)
T26 sequence (P53667 whole entry): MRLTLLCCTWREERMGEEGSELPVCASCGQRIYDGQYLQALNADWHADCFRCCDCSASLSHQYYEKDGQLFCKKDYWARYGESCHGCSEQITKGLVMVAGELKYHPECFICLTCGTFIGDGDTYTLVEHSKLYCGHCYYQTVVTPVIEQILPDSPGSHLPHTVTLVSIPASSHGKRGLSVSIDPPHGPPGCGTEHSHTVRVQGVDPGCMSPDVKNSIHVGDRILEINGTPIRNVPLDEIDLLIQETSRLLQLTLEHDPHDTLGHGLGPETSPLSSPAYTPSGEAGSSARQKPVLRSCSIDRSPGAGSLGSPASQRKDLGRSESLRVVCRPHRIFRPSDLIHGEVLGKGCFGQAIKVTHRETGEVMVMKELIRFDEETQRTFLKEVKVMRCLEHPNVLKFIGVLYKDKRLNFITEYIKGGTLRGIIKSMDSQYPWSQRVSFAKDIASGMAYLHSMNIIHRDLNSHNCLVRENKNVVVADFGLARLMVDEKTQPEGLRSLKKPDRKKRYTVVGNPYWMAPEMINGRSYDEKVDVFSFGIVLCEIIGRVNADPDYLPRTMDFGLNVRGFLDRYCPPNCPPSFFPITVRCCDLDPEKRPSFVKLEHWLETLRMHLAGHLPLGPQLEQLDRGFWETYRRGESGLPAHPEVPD
Source text: as §1

Rsk3 = target: T27, Rsk3 (Homo sapiens, UniProt Q15349); experiment: KinaseProfiler Rsk3
T27 construct: purchased Millipore, Inc. (KinaseProfiler service)
Source text: as §1

CK2 = target: T28, CK2 (Homo sapiens, UniProt P68400); experiment: KinaseProfiler CK2
T28 construct: purchased Millipore, Inc. (KinaseProfiler service)
Source text: as §1

Tie2 = target: T29, Tie2 (Homo sapiens, UniProt Q02763); experiment: KinaseProfiler Tie2
T29 construct: purchased Millipore, Inc. (KinaseProfiler service)
Source text: as §1

PKCbetaII = target: T30, PKCbetaII (Homo sapiens, UniProt P05771); experiment: KinaseProfiler PKCbetaII
T30 construct: purchased Millipore, Inc. (KinaseProfiler service)
Source text: as §1

CDK5/p35 = target: T31, CDK5/p35 (Homo sapiens, UniProt Q00535); experiment: KinaseProfiler CDK5/p35
T31 construct: purchased Millipore, Inc. (KinaseProfiler service)
Source text: as §1

mTOR/FKBP12 = target: T32, mTOR/FKBP12 (Homo sapiens, UniProt P42345); experiment: KinaseProfiler mTOR/FKBP12
T32 construct: purchased Millipore, Inc. (KinaseProfiler service)
Source text: as §1

TSSK1 = target: T33, TSSK1 (Homo sapiens, UniProt Q9BXA7); experiment: KinaseProfiler TSSK1
T33 construct: purchased Millipore, Inc. (KinaseProfiler service)
Source text: as §1

EphA8 = target: T34, EphA8 (Homo sapiens, UniProt P29322); experiment: KinaseProfiler EphA8
T34 construct: purchased Millipore, Inc. (KinaseProfiler service)
Source text: as §1

DAPK1 = target: T35, DAPK1 (Homo sapiens, UniProt P53355); experiment: KinaseProfiler DAPK1
T35 construct: purchased Millipore, Inc. (KinaseProfiler service)
Source text: as §1

PTK6 = target: T36, PTK6 (Homo sapiens, UniProt Q13882); experiment: KinaseProfiler PTK6
T36 construct: purchased Millipore, Inc. (KinaseProfiler service)
Source text: as §1

IRAK1 = target: T37, IRAK1 (Homo sapiens, UniProt P51617); experiment: KinaseProfiler IRAK1
T37 construct: purchased Millipore, Inc. (KinaseProfiler service)
Source text: as §1

Pim-1 = target: T38, Pim-1 (Homo sapiens, UniProt P11309); experiment: KinaseProfiler Pim-1
T38 construct: purchased Millipore, Inc. (KinaseProfiler service)
Source text: as §1

MARK1 = target: T39, MARK1 (Homo sapiens, UniProt Q9P0L2); experiment: KinaseProfiler MARK1
T39 construct: purchased Millipore, Inc. (KinaseProfiler service)
T39 sequence (Q9P0L2 whole entry): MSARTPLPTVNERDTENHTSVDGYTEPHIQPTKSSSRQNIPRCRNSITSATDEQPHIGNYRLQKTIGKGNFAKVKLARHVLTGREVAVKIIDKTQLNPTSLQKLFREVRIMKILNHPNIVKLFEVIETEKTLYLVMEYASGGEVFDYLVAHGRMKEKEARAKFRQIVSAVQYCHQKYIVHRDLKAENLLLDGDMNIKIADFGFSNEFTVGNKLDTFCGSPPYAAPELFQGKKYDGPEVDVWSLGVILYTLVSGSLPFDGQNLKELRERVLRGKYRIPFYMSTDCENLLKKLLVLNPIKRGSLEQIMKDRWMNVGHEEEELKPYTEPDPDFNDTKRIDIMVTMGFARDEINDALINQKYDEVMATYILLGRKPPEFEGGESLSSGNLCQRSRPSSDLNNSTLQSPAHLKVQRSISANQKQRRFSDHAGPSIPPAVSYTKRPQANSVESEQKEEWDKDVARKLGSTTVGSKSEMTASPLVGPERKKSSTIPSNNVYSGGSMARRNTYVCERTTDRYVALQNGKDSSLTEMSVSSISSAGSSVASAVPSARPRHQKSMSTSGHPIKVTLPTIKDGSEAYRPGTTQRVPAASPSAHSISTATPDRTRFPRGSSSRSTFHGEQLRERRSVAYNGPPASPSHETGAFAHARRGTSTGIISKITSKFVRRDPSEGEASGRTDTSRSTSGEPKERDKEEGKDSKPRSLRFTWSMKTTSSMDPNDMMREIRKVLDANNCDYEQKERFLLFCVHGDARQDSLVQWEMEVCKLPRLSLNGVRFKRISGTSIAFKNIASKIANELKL
Source text: as §1

Ret = target: T40, Ret (Homo sapiens, UniProt P07949); experiment: KinaseProfiler Ret
T40 construct: purchased Millipore, Inc. (KinaseProfiler service)
Source text: as §1

MKK4_m = target: T41, MKK4_m (Mus musculus, UniProt P47809); experiment: KinaseProfiler MKK4_m
T41 construct: purchased Millipore, Inc. (KinaseProfiler service)
T41 sequence (P47809 whole entry): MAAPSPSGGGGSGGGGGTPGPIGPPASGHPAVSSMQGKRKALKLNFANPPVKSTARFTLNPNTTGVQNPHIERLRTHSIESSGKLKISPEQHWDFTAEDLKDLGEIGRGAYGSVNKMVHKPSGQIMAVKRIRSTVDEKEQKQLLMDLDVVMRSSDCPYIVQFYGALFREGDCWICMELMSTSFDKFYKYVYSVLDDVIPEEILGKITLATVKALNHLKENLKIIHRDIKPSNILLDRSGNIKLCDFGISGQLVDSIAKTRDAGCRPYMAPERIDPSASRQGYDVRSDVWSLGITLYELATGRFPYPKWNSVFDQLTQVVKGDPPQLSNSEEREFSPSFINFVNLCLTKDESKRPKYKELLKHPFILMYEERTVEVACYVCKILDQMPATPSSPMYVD
Source text: as §1

ErbB4 = target: T42, ErbB4 (Homo sapiens, UniProt Q15303); experiment: KinaseProfiler ErbB4
T42 construct: purchased Millipore, Inc. (KinaseProfiler service)
Source text: as §1

Fms = target: T43, Fms (Homo sapiens, UniProt P07333); experiment: KinaseProfiler Fms
T43 construct: purchased Millipore, Inc. (KinaseProfiler service)
T43 sequence (P07333 20-972): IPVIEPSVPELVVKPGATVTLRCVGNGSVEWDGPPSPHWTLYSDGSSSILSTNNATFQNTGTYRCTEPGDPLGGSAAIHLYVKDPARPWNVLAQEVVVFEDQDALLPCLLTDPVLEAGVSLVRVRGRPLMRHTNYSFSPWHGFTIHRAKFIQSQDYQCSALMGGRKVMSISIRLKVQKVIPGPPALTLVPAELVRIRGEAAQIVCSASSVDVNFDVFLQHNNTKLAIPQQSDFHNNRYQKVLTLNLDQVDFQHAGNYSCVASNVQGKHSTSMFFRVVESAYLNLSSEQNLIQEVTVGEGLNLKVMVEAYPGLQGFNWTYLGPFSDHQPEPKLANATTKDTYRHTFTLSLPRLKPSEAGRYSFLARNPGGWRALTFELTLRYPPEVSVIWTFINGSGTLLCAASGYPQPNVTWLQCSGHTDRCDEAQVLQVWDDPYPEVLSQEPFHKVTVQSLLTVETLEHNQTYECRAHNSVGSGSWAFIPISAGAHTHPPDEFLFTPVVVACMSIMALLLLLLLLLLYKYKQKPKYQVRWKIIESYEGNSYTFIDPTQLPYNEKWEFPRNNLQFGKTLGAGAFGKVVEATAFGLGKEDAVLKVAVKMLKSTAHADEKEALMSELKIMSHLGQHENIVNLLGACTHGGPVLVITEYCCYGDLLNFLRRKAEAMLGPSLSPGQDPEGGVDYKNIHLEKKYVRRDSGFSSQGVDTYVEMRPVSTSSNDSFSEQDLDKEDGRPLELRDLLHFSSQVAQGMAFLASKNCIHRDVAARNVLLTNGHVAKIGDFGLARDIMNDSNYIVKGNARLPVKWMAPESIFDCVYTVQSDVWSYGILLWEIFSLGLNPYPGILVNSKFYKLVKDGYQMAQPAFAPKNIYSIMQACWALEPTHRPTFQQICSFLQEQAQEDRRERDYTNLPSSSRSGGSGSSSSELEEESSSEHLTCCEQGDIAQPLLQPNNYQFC
Source text: as §1

Cc1c(-c2cnn(C)c2)nn(-c2ccccc2)c1NC(=O)Nc1cc(C(F)(F)F)nn1-c1ccccc1 [Example 3, 1-(1′,4-dimethyl-1-phenyl-1H,1′H-[3,4′-bipyrazol]-5-yl)-3-(1-phenyl-3-(trifluoromethyl)-1H-pyrazol-5-yl)urea]
Avg POC (PAK5): 145.5 POC | Avg POC (Pim-2): 117.5 POC | Avg POC (ARK5): 92.5 POC | Avg POC (Met): 129 POC | Avg POC (DAPK2): 106 POC | Avg POC (PDGFRbeta): 175 POC | Avg POC (CDK2/cyclinE): 106.5 POC | Avg POC (PAK6): 167 POC | Avg POC (MELK): 115 POC | Avg POC (VRK2): 96.5 POC | Avg POC (PKCeta): 94.5 POC | Avg POC (Flt1): 91.5 POC | Avg POC (DCAMKL2): 222.5 POC | Avg POC (CAMK1): 103.5 POC | Avg POC (EphB2): 118.5 POC | Avg POC (BrSK2): 135 POC | Avg POC (TAK1): 94 POC | Avg POC (ITK): 128 POC | Avg POC (Syk): 101 POC | Avg POC (CDK5/p25): 108.5 POC | Avg POC (MAP4K2): 113 POC | Avg POC (MYLK): 122 POC | Avg POC (ULK2): 98 POC | Avg POC (WNK3): 108 POC | Avg POC (Mer): 104.5 POC | Avg POC (LIMK1): 92 POC | Avg POC (Rsk3): 104.5 POC | Avg POC (CK2): 96.5 POC | Avg POC (Tie2): 121.5 POC | Avg POC (PKCbetaII): 96.5 POC | Avg POC (CDK5/p35): 110.5 POC | Avg POC (mTOR/FKBP12): 92.5 POC | Avg POC (TSSK1): 83.5 POC | Avg POC (EphA8): 122 POC | Avg POC (DAPK1): 137.5 POC | Avg POC (PTK6): 110 POC | Avg POC (IRAK1): 102.5 POC | Avg POC (Pim-1): 119.5 POC | Avg POC (MARK1): 112 POC | Avg POC (Ret): 89.5 POC | Avg POC (MKK4_m): 132.5 POC | Avg POC (ErbB4): 126 POC | Avg POC (Fms): 91.5 POC
